Measurements published in article PMC4137035 (Bioorganic & medicinal chemistry letters, 2014).
≈ marks a conversion by molar mass, not a printed value.

Key:
[1] = test system: wild-type HIV-1 (IIIB); type: cell-based; conditions: selective index, CC50 vs EC50 IIIB
[2] = Aqueous solubility measured by HPLC; type: physicochemical
[3] = aqueous medium at pH 7.4 (buffer not named), pH 7.4

SMILES | SI [1] | solubility [2, 3] [µg/mL] | solubility ([2]; aqueous medium at pH 2.0 (buffer not named), pH 2) [µg/mL]
Cc1cc(C#N)cc(C)c1Oc1cc(Nc2ccc(C#N)cc2)c(N)cc1CO [7a] | 114,019 | < 1 | –
Cc1cc(C#N)cc(C)c1Oc1cc(Nc2ccc(C#N)cc2)c(N)cc1CNC1CC1 [7c] | 1,142 | – | 285 (≈ 673 µM)
Cc1cc(C#N)cc(C)c1Oc1cc(Nc2ccc(C#N)cc2)c(N)cc1CNCCCO [7d] | 2,475 | – | –
COCc1cc(N)c(Nc2ccc(C#N)cc2)cc1Oc1c(C)cc(C#N)cc1C [7g] | – | < 1 | –
CC(=O)OCc1cc(N)c(Nc2ccc(C#N)cc2)cc1Oc1c(C)cc(C#N)cc1C [7h] | – | < 1 | –
COCc1cc(N)c(Nc2ccc(C#N)cc2)cc1Oc1c(C)cc(/C=C/C#N)cc1C [11a] | 8,763 | < 1 | –
CC(=O)OCc1cc(N)c(Nc2ccc(C#N)cc2)cc1Oc1c(C)cc(/C=C/C#N)cc1C [11b] | 117,439 | < 1 | –
COCc1cc(N)c(Nc2ccc(C#N)cc2)cc1Oc1c(C)cc(CCC#N)cc1C [12a] | >61,538 | < 1 | –
CC(=O)OCc1cc(N)c(Nc2ccc(C#N)cc2)cc1Oc1c(C)cc(CCC#N)cc1C [12b] | 46,667 | < 1 | –
